Assay results: EP0745595A1, “3-(3-Aryloxyphenyl)-1-(substituted methyl)-s-triazine-2,4,6-oxo or thiotrione herbicidal agents” (American Cyanamid Company, priority 1995, dated 1996)

Key:
Format in all cases: in vivo
[1] = test system: ZEA MAYS L.; experiment: Preemergence herbicidal evaluation, ZEAMX (Corn, Field); settings: rated four to five weeks after treatment
In short: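 Corn (Zea mays) seeds were mixed with potting soil and planted on about one inch of soil in pint cups, then treated preemergence. Cups were kept on greenhouse benches, watered and maintained conventionally, and after four to five weeks were visually rated on a 0-9 scale versus an untreated control.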

[2] = test system: CHENOPODIUM ALBUM, L.; experiment: Preemergence herbicidal evaluation, CHEAL (Lambsquarters, Common); settings: rated four to five weeks after treatment
In short: (§1)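 Preemergence, greenhouse: seed + potting soil sown on ~1 inch soil in cups; aqueous acetone spray, ~0.125–0.50 kg/ha equivalent; rated 0-9 vs control at 4–5 wk.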

[3] = test system: CYPERUS SEROTINUS, ROTTB.; experiment: Preemergence weed control under flooded paddy conditions, CYPSE (Flatsedge); settings: preemergence, 3-4 weeks after treatment
In short: (§2)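 Flooded paddy preemergence test: seeds/propagating organs in top 0.5 cm silt loam, water held 1.5-3 cm above soil. Dosing by pipette into flood water, aqueous/acetone 50/50 v/v, ~0.5, 0.25, 0.125, 0.063 kg/ha a.i. Greenhouse; read at 3-4 wk, 0-9 visual scale.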

[4] = test system: GLYCINE MAX(L) MERR. CV. WILLIAMS; experiment: Preemergence herbicidal evaluation, GLXMAW (Soybean, Williams); settings: rated four to five weeks after treatment
In short: as §1

[5] = test system: IPOMOEA SPP.; experiment: Preemergence herbicidal evaluation, IPOSS (Morningglory spp.); settings: rated four to five weeks after treatment
Source text: (§3) Results of herbicide evaluation are expressed on a rating scale (0-9). The scale is based upon a visual observation of plant stand, vigor, malformation, size, chlorosis and overall plant appearance as compared with a control.
(§4) The preemergence herbicidal activity of the test compounds of the present invention is exemplified by the following tests in which the seeds of a variety of monocotyledonous and dicotyledonous plants are separately mixed with potting soil and planted on top of approximately one inch of soil in separate pint cups. […] The treated cups are then placed on greenhouse benches, watered and cared for in accordance with conventional greenhouse procedures. From four to five weeks after treatment, the tests are terminated and each cup is examined and rated according to the rating system provided in Example 40.
(§5) The compounds evaluated are reported by compound number given in Example 40.

[6] = test system: ECHINOCHLOA CRUS-GALLI, (L) BEAU; experiment: Preemergence herbicidal evaluation, ECHCG (Barnyardgrass); settings: rated four to five weeks after treatment
In short: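 Barnyardgrass seeds were mixed with potting soil and planted on about one inch of soil in pint cups for preemergence testing. Treated cups were kept on greenhouse benches, watered and maintained by standard greenhouse practice. After four to five weeks, each cup was visually rated on a 0-9 scale against an untreated control.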

[7] = test system: SETARIA VIRIDIS, (L) BEAU; experiment: Preemergence herbicidal evaluation, SETVI (Foxtail, Green); settings: rated four to five weeks after treatment
Source text: as §3, §4, §5

[8] = test system: ORYZA SATIVA, L. TEBONNET; experiment: Rice tolerance to post-transplant applications under flooded paddy conditions, ORYSAT (Rice, Tebonnet); settings: post-transplant rice, 3-4 weeks after treatment
In short: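 Post-transplant paddy test: compound applied 3 d after transplanting to flooded soil (1.5-3 cm water), ~0.063-0.5 kg/ha a.i., 50/50 aq/acetone. Silt loam, 2 × 10-d seedlings/pot. Greenhouse 3-4 wk, visual 0-9 score vs control.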

[9] = test system: CASSIA OBTUSIFOLIA, L.; experiment: Preemergence herbicidal evaluation, CASOB (Sicklepod); settings: rated four to five weeks after treatment
In short: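 Seeds of various monocot and dicot plants, including sicklepod, were each mixed with potting soil and sown on roughly one inch of soil in separate pint cups for preemergence testing. Treated cups were kept on greenhouse benches, watered and maintained conventionally. Four to five weeks after treatment, each cup was visually rated on a 0-9 scale against a control.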

[10] = test system: ECHINOCHLOA ORYZOIDES (ARD.)FRITSCH; experiment: Preemergence weed control under flooded paddy conditions, ECHORC (Watergrass (Calif.)); settings: preemergence, 3-4 weeks after treatment
In short: as §2

[11] = test system: SAGITTARIA PYGMAEA, L.; experiment: Preemergence weed control under flooded paddy conditions, SAGPY (Arrowhead (Pygmaea)); settings: preemergence, 3-4 weeks after treatment
In short: as §2

[12] = test system: ORYZA SATIVA, L. TEBONNET; experiment: Preemergence herbicidal evaluation, ORYSAT (Rice, Tebonnet); settings: rated four to five weeks after treatment
Source text: as §3, §4, §5

[13] = test system: SETARIA VIRIDIS, (L) BEAU; experiment: Postemergence herbicidal evaluation, SETVI (Foxtail, Green); set-up: key to SETVI rating / Herbicidal effect rating, SETVI / SETVI: 0-9 visual rating scale vs untreated control
In short: (§6)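 Visual 0–9 scores reflect stand, vigor, malformation, size, chlorosis and overall appearance relative to control, taken 4–5 weeks after spraying two-week-old seedlings with about 0.125–0.500 kg/ha compound in acetone/water/TWEEN 20.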

[14] = test system: […], PRESL.; experiment: Preemergence weed control under flooded paddy conditions, MOOVA (Monochoria); settings: 0.500 kg/ha, preemergence, 3-4 weeks after treatment
In short: as §2

[15] = test system: ABUTILON THEOPHRASTI, MEDIC.; experiment: Preemergence herbicidal evaluation, ABUTH (Velvetleaf); settings: rated four to five weeks after treatment
Source text: as §3, §4, §5

[16] = test system: CASSIA OBTUSIFOLIA, L.; experiment: Postemergence herbicidal evaluation, CASOB (Sicklepod); set-up: key to CASOB rating / Herbicidal effect rating, CASOB / CASOB: 0-9 visual rating scale vs untreated control
In short: as §6

[17] = test system: AMBROSIA ARTEMISIIFOLIA, L.; experiment: Postemergence herbicidal evaluation, AMBEL (Ragweed, Common)
In short: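 Common ragweed (Ambrosia artemisiifolia) seedlings were raised in jiffy flats for roughly two weeks, then sprayed postemergence through a nozzle at 40 psi with the test compound dispersed in 50/50 acetone/water carrying 0.5% TWEEN®20. The plants were kept on greenhouse benches under conventional care. Four to five weeks later, injury was rated visually on a 0-9 scale, and repeat tests were averaged.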

[18] = test system: CYPERUS IRIA; experiment: Preemergence weed control under flooded paddy conditions, CYPIR (Rice Flatsedge); settings: 0.500 kg/ha, preemergence, 3-4 weeks after treatment
In short: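 Seeds or propagating organs of rice flatsedge were planted in the top 0.5 cm of silt loam soil in 32 oz. plastic containers, 10.5 cm across and without drainage holes. Water was kept 1.5 to 3 cm above the soil throughout. Treated containers were kept on greenhouse benches, and herbicidal effect was visually rated on a 0-9 scale against a control.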

[19] = test system: AMBROSIA ARTEMISIIFOLIA, L.; experiment: Preemergence herbicidal evaluation, AMBEL (Ragweed, Common); settings: rated four to five weeks after treatment
In short: as §1

[20] = test system: ECHINOCHLOA CRUS-GALLI, (L) BEAU; experiment: Postemergence herbicidal evaluation, ECHCG (Barnyardgrass); set-up: key to ECHCG rating / Herbicidal effect rating, ECHCG / ECHCG: 0-9 visual rating scale vs untreated control
In short: as §6

[21] = test system: TRITICUM AESTIVUM, CV. APOLLO; experiment: Preemergence herbicidal evaluation, TRZAWO (Wheat, Winter, CV. APOLLO); settings: rated four to five weeks after treatment
In short: as §1

SMILES: COC(=O)Cn1c(=O)[nH]c(=O)n(-c2cc(Oc3ccc(Cl)cc3Cl)ccc2[N+](=O)[O-])c1=O [Compound 14, Methyl 3-[5-(2,4-dichlorophenoxy)-2-nitrophenyl]tetrahydro-2,4,6-trioxo-s-triazine-1(2H)-acetate]
- ZEAMX herbicidal rating ([1]; Rate 0.125 kg/ha): 0.0
- ZEAMX herbicidal rating ([1]; Rate 0.250 kg/ha): 0.0
- ZEAMX herbicidal rating ([1]; Rate 0.500 kg/ha): 0.0
- CHEAL herbicidal rating ([2]; Rate 0.125 kg/ha): 9.0
- CHEAL herbicidal rating ([2]; Rate 0.250 kg/ha): 9.0
- CHEAL herbicidal rating ([2]; Rate 0.500 kg/ha): 9.0
- Herbicidal effect rating, CYPSE ([3]; 0.063 kg/ha): 0.0
- Herbicidal effect rating, CYPSE ([3]; 0.125 kg/ha): 0.0
- Herbicidal effect rating, CYPSE ([3]; 0.250 kg/ha): 0.0
- Herbicidal effect rating, CYPSE ([3]; 0.500 kg/ha): 0.0
- GLXMAW herbicidal rating ([4]; Rate 0.125 kg/ha): 0.0
- GLXMAW herbicidal rating ([4]; Rate 0.250 kg/ha): 0.0
- GLXMAW herbicidal rating ([4]; Rate 0.500 kg/ha): 0.0
- IPOSS herbicidal rating ([5]; Rate 0.125 kg/ha): 0.0
- IPOSS herbicidal rating ([5]; Rate 0.250 kg/ha): 0.0
- IPOSS herbicidal rating ([5]; Rate 0.500 kg/ha): 0.0
- ECHCG herbicidal rating ([6]; Rate 0.125 kg/ha): 0.0
- ECHCG herbicidal rating ([6]; Rate 0.250 kg/ha): 0.0
- ECHCG herbicidal rating ([6]; Rate 0.500 kg/ha): 0.0
- SETVI herbicidal rating ([7]; Rate 0.125 kg/ha): 0.0
- SETVI herbicidal rating ([7]; Rate 0.250 kg/ha): 0.0
- SETVI herbicidal rating ([7]; Rate 0.500 kg/ha): 0.0
- Herbicidal effect rating, ORYSAT ([8]; 0.063 kg/ha): 0.0
- Herbicidal effect rating, ORYSAT ([8]; 0.125 kg/ha): 0.0
- Herbicidal effect rating, ORYSAT ([8]; 0.250 kg/ha): 0.0
- Herbicidal effect rating, ORYSAT ([8]; 0.500 kg/ha): 0.0
- CASOB herbicidal rating ([9]; Rate 0.125 kg/ha): 0.0
- CASOB herbicidal rating ([9]; Rate 0.250 kg/ha): 0.0
- CASOB herbicidal rating ([9]; Rate 0.500 kg/ha): 0.0
- Herbicidal effect rating, ECHORC ([10]; 0.063 kg/ha): 0.0
- Herbicidal effect rating, ECHORC ([10]; 0.125 kg/ha): 0.0
- Herbicidal effect rating, ECHORC ([10]; 0.250 kg/ha): 0.0
- Herbicidal effect rating, ECHORC ([10]; 0.500 kg/ha): 0.0
- Herbicidal effect rating, SAGPY ([11]; 0.063 kg/ha): 0.0
- Herbicidal effect rating, SAGPY ([11]; 0.125 kg/ha): 0.0
- Herbicidal effect rating, SAGPY ([11]; 0.250 kg/ha): 0.0
- Herbicidal effect rating, SAGPY ([11]; 0.500 kg/ha): 0.0
- ORYSAT herbicidal rating ([12]; Rate 0.125 kg/ha): 1.0
- ORYSAT herbicidal rating ([12]; Rate 0.250 kg/ha): 1.0
- ORYSAT herbicidal rating ([12]; Rate 0.500 kg/ha): 1.0

SMILES: Cn1c(=O)n(CC(N)=O)c(=O)n(-c2cccc(Oc3ccc(C(F)(F)F)cc3Cl)c2)c1=O [Compound 46, 3-{5-[(2-Chloro-α,α,α-trifluoro-p-tolyl)-oxy]phenyl}tetrahydro-5-methyl-2,4,6-trioxo-s-triazine-1(2H)-acetamide]
- SETVI rating ([13]; Rate 0.125 kg/ha): 0.0
- SETVI rating ([13]; Rate 0.250 kg/ha): 0.0
- SETVI rating ([13]; Rate 0.500 kg/ha): 0.0
- Herbicidal effect rating, MOOVA [14]: 0.0
- ABUTH herbicidal rating ([15]; Rate 0.125 kg/ha): 0.0
- ABUTH herbicidal rating ([15]; Rate 0.250 kg/ha): 0.0
- ABUTH herbicidal rating ([15]; Rate 0.500 kg/ha): 0.0
- CASOB rating ([16]; Rate 0.125 kg/ha): 0.0
- CASOB rating ([16]; Rate 0.250 kg/ha): 0.0
- CASOB rating ([16]; Rate 0.500 kg/ha): 0.0
- Herbicidal effect rating, CYPSE ([3]; 0.500 kg/ha): 0.0
- GLXMAW herbicidal rating ([4]; Rate 0.125 kg/ha): 1.0
- GLXMAW herbicidal rating ([4]; Rate 0.250 kg/ha): 1.0
- GLXMAW herbicidal rating ([4]; Rate 0.500 kg/ha): 1.0
- IPOSS herbicidal rating ([5]; Rate 0.125 kg/ha): 0.0
- IPOSS herbicidal rating ([5]; Rate 0.250 kg/ha): 0.0
- IPOSS herbicidal rating ([5]; Rate 0.500 kg/ha): 0.0
- AMBEL rating ([17]; Rate 0.125 kg/ha): 0.0
- AMBEL rating ([17]; Rate 0.250 kg/ha): 0.0
- AMBEL rating ([17]; Rate 0.500 kg/ha): 0.0
- ECHCG herbicidal rating ([6]; Rate 0.125 kg/ha): 0.0
- ECHCG herbicidal rating ([6]; Rate 0.250 kg/ha): 0.0
- ECHCG herbicidal rating ([6]; Rate 0.500 kg/ha): 0.0
- SETVI herbicidal rating ([7]; Rate 0.125 kg/ha): 0.0
- SETVI herbicidal rating ([7]; Rate 0.250 kg/ha): 0.0
- SETVI herbicidal rating ([7]; Rate 0.500 kg/ha): 0.0
- Herbicidal effect rating, ORYSAT ([8]; 0.500 kg/ha): 0.0
- CASOB herbicidal rating ([9]; Rate 0.125 kg/ha): 0.0
- CASOB herbicidal rating ([9]; Rate 0.250 kg/ha): 0.0
- CASOB herbicidal rating ([9]; Rate 0.500 kg/ha): 0.0
- Herbicidal effect rating, CYPIR [18]: 0.0
- AMBEL herbicidal rating ([19]; Rate 0.125 kg/ha): 0.0
- AMBEL herbicidal rating ([19]; Rate 0.250 kg/ha): 0.0
- AMBEL herbicidal rating ([19]; Rate 0.500 kg/ha): 0.0
- ECHCG rating ([20]; Rate 0.125 kg/ha): 0.0
- ECHCG rating ([20]; Rate 0.250 kg/ha): 0.0
- ECHCG rating ([20]; Rate 0.500 kg/ha): 0.0
- Herbicidal effect rating, ECHORC ([10]; 0.500 kg/ha): 0.0
- Herbicidal effect rating, SAGPY ([11]; 0.500 kg/ha): 0.0
- TRZAWO herbicidal rating ([21]; Rate 0.125 kg/ha): 1.0
- TRZAWO herbicidal rating ([21]; Rate 0.250 kg/ha): 1.0
- TRZAWO herbicidal rating ([21]; Rate 0.500 kg/ha): 1.0
